The source made the active and inactive calls. The rule behind the calls is not given here.
Assays:
[1] = tested on: HepG2; assay: Induction of cell cycle arrest in Homo sapiens (human) HepG2 cells assessed as S phase cells at 55 uM at 16 hr by flow cytometric analysis (reference value: 46.4 +/- 3.6 cells); assay type: functional
[2] = tested on: HCT-116; assay: Antiangiogenic activity against Homo sapiens (human) HCT116 cells assessed as reduction in VEGF level at 52.3 uM after 48 hr by ELISA relative to control; assay type: functional; set-up: scale not given: the % may be the effect or the level left
[3] = tested on: HepG2; assay: Induction of cell cycle arrest in Homo sapiens (human) HepG2 cells assessed as increase in G0/G1 phase cells at 55 uM at 48 hr by flow cytometric analysis relative to control; assay type: functional
[4] = tested on: HepG2; assay: Induction of cell cycle arrest in Homo sapiens (human) HepG2 cells assessed as G2/M phase cells at 55 uM at 24 hr by flow cytometric analysis (reference value: 4 +/- 0.9 cells); assay type: functional
[5] = tested on: HCT-116; assay: Cytotoxicity against Homo sapiens (human) HCT116 cells at 20 to 100 uM by SRB assay; assay type: functional, cell-based; settings: TDE = time-dependent effect
[6] = tested on: HepG2; assay: Induction of cell cycle arrest in Homo sapiens (human) HepG2 cells assessed as G2/M phase cells at 55 uM at 48 hr by flow cytometric analysis (reference value: 4 +/- 0.9 cells); assay type: functional
[7] = tested on: HepG2; assay: Induction of cell cycle arrest in Homo sapiens (human) HepG2 cells assessed as G0/G1 phase cells at 55 uM at 16 hr by flow cytometric analysis (reference value: 50.4 +/- 1.7 cells); assay type: functional
[8] = tested on: MCF7; assay: Cytotoxicity against Homo sapiens (human) MCF7 cells at 40 uM after 48 hr by SRB assay; assay type: functional
[9] = tested on: HCT-116; assay: Induction of apoptosis in Homo sapiens (human) HCT116 cells assessed as caspase9 cleavage at 52.3 uM at 16 hr by Western blot analysis; assay type: functional, cell-based
[10] = tested on: HepG2; assay: Induction of cell cycle arrest in Homo sapiens (human) HepG2 cells assessed as increase in G0/G1 phase cells at 55 uM at 24 hr by flow cytometric analysis relative to control; assay type: functional
[11] = tested on: HCT-116; assay: Induction of cell cycle arrest in Homo sapiens (human) HCT116 cells assessed as G0/G1 phase cells at 52.3 uM at 16 hr by flow cytometric analysis (reference value: 58.2 +/- 3.7 cells); assay type: functional
[12] = tested on: HepG2; assay: Cytotoxicity against Homo sapiens (human) HepG2 cells at 100 uM after 24 hr by SRB assay; assay type: functional
[13] = tested on: HCT-116; assay: Induction of apoptosis in Homo sapiens (human) HCT116 cells assessed as effect on Bcl2 level at 52.3 uM from 3 to 24 hr by Western blot analysis; assay type: functional, cell-based
[14] = tested on: HCT-116; assay: Induction of cell cycle arrest in Homo sapiens (human) HCT116 cells assessed as S phase cells at 52.3 uM at 16 hr by flow cytometric analysis (reference value: 33.6 +/- 0.6 cells); assay type: functional
[15] = tested on: HepG2; assay: Cytotoxicity against Homo sapiens (human) HepG2 cells at 20 uM after 72 hr by SRB assay; assay type: functional, cell-based
[16] = tested on: HepG2; assay: Cytotoxicity against Homo sapiens (human) HepG2 cells after 48 hr by SRB assay; assay type: functional, cell-based; settings: HepG2, 48 h
[17] = tested on: MCF7; assay: Cytotoxicity against Homo sapiens (human) MCF7 cells at 20 uM after 72 hr by SRB assay; assay type: functional, cell-based
[18] = tested on: HCT-116; assay: Induction of cell cycle arrest in Homo sapiens (human) HCT116 cells assessed as S phase cells at 52.3 uM at 48 hr by flow cytometric analysis (reference value: 33.6 +/- 0.6 cells); assay type: functional
[19] = tested on: HCT-116; assay: Cytotoxicity against Homo sapiens (human) HCT116 cells assessed as DNA fragmentation at […] after 48 hr by agarose gel electrophoresis; assay type: functional, cell-based
[20] = tested on: HCT-116; assay: Induction of cell cycle arrest in Homo sapiens (human) HCT116 cells assessed as G2/M phase cells at 52.3 uM at 16 hr by flow cytometric analysis (reference value: 9.7 +/- 0.8 cells); assay type: functional
[21] = tested on: HeLa; assay: Cytotoxicity against Homo sapiens (human) HeLa cells after 24 to 72 hr by SRB assay; assay type: functional, cell-based
[22] = tested on: HepG2; assay: Induction of cell cycle arrest in Homo sapiens (human) HepG2 cells assessed as S phase cells at 55 uM at 48 hr by flow cytometric analysis (reference value: 46.4 +/- 3.6 cells); assay type: functional
[23] = tested on: HeLa; assay: Cytotoxicity against Homo sapiens (human) HeLa cells at 100 uM after 24 hr by SRB assay; assay type: functional
[24] = tested on: MCF7; assay: Cytotoxicity against Homo sapiens (human) MCF7 cells at 20 to 100 uM by SRB assay; assay type: functional, cell-based; settings: TDE = time-dependent effect
[25] = tested on: HeLa; assay: Cytotoxicity against Homo sapiens (human) HeLa cells at 20 to 100 uM by SRB assay; assay type: functional, cell-based; settings: TDE = time-dependent effect
[26] = tested on: HCT-116; assay: Cytotoxicity against Homo sapiens (human) HCT116 cells after 48 hr by SRB assay; assay type: functional, cell-based; settings: HCT-116, 48 h
[27] = tested on: HepG2; assay: Cytotoxicity against Homo sapiens (human) HepG2 cells at 40 uM after 72 hr by SRB assay; assay type: functional
[28] = tested on: MCF7; assay: Cytotoxicity against Homo sapiens (human) MCF7 cells after 24 to 72 hr by SRB assay; assay type: functional, cell-based
[29] = tested on: HepG2; assay: Induction of apoptosis in Homo sapiens (human) HepG2 cells assessed as caspase9 cleavage at 55 uM at 16 hr by Western blot analysis; assay type: functional, cell-based
[30] = tested on: MCF7; assay: Cytotoxicity against Homo sapiens (human) MCF7 cells at 100 uM after 24 hr by SRB assay; assay type: functional
[31] = tested on: HCT-116; assay: Induction of cell cycle arrest in Homo sapiens (human) HCT116 cells assessed as G2/M phase cells at 52.3 uM at 48 hr by flow cytometric analysis (reference value: 9.7 +/- 0.8 cells); assay type: functional
[32] = tested on: HepG2; assay: Induction of cell cycle arrest in Homo sapiens (human) HepG2 cells assessed as G2/M phase cells at 55 uM at 16 hr by flow cytometric analysis (reference value: 4 +/- 0.9 cells); assay type: functional
[33] = tested on: HCT-116; assay: Induction of cell cycle arrest in Homo sapiens (human) HCT116 cells assessed as increase in G0/G1 phase cells at 52.3 uM at 24 hr by flow cytometric analysis relative to control; assay type: functional
[34] = tested on: HeLa; assay: Cytotoxicity against Homo sapiens (human) HeLa cells at 20 uM after 72 hr by SRB assay; assay type: functional, cell-based
[35] = tested on: HepG2; assay: Cytotoxicity against Homo sapiens (human) HepG2 cells assessed as DNA fragmentation at 55 uM from 24 to 48 hr by agarose gel electrophoresis; assay type: functional, cell-based
[36] = tested on: HCT-116; assay: Antiangiogenic activity against Homo sapiens (human) HCT116 cells assessed as reduction in VEGF level at 52.3 uM after 24 hr by ELISA relative to control; assay type: functional; set-up: scale not given: the % may be the effect or the level left
[37] = tested on: HCT-116; assay: Induction of cell cycle arrest in Homo sapiens (human) HCT116 cells assessed as S phase cells at 52.3 uM at 24 hr by flow cytometric analysis (reference value: 33.6 +/- 0.6 cells); assay type: functional
[38] = tested on: HCT-116; assay: Cytotoxicity against Homo sapiens (human) HCT116 cells at 20 uM after 72 hr by SRB assay; assay type: functional, cell-based
[39] = tested on: HCT-116; assay: Induction of cell cycle arrest in Homo sapiens (human) HCT116 cells assessed as increase in G0/G1 phase cells at 52.3 uM at 48 hr by flow cytometric analysis relative to control; assay type: functional
[40] = tested on: HeLa; assay: Cytotoxicity against Homo sapiens (human) HeLa cells at 40 uM after 72 hr by SRB assay; assay type: functional
[41] = tested on: HCT-116; assay: Cytotoxicity against Homo sapiens (human) HCT116 cells at 100 uM after 24 hr by SRB assay; assay type: functional
[42] = tested on: HCT-116; assay: Induction of cell cycle arrest in Homo sapiens (human) HCT116 cells assessed as G2/M phase cells at 52.3 uM at 24 hr by flow cytometric analysis (reference value: 9.7 +/- 0.8 cells); assay type: functional
[43] = tested on: HCT-116; assay: Cytotoxicity against Homo sapiens (human) HCT116 cells after 24 to 72 hr by SRB assay; assay type: functional, cell-based
[44] = tested on: HepG2; assay: Induction of cell cycle arrest in Homo sapiens (human) HepG2 cells assessed as S phase cells at 55 uM at 24 hr by flow cytometric analysis (reference value: 46.4 +/- 3.6 cells); assay type: functional
[45] = tested on: HepG2; assay: Induction of apoptosis in Homo sapiens (human) HepG2 cells assessed as effect on Bcl2 level at 55 uM from 3 to 24 hr by Western blot analysis; assay type: functional, cell-based
[46] = tested on: HepG2; assay: Antiangiogenic activity against Homo sapiens (human) HepG2 cells assessed as reduction in VEGF level at 55 uM from 24 to 48 hr by ELISA relative to control; assay type: functional, cell-based
[47] = tested on: HCT-116; assay: Cytotoxicity against Homo sapiens (human) HCT116 cells at 40 uM after 72 hr by SRB assay; assay type: functional
[48] = tested on: HepG2; assay: Cytotoxicity against Homo sapiens (human) HepG2 cells at 20 to 100 uM by SRB assay; assay type: functional, cell-based; settings: TDE = time-dependent effect
[49] = tested on: HepG2; assay: Cytotoxicity against Homo sapiens (human) HepG2 cells after 24 to 72 hr by SRB assay; assay type: functional, cell-based

Cc1c(C)c2c(c(C)c1OC(=O)CCC(=O)O)CC[C@@](C)(CCC[C@H](C)CCC[C@H](C)CCCC(C)C)O2 [(+)-ALPHA-TOCOPHERYL SUCCINATE]
Activity [1]: 38.4%
Activity [2]: 54%
Activity [3]: 62.1%
Activity [4]: 2.1%
Activity [5]: tde
Activity [6]: 1.8%
Activity [7]: 60%
Activity [8]: 14%
Activity [9]: Active
Activity [10]: 27.4%
Activity [11]: 58.7%
Activity [12]: 55%
Activity [13]: inactive
Activity [14]: 32.7%
Activity [15]: inactive
IC50 [16]: 55 µM
Activity [17]: inactive
Activity [18]: 13.4%
Activity [19]: Active
Activity [20]: 9.5%
Activity [21]: Dose-dependent effect
Activity [22]: 15.4%
Activity [23]: 65%
Activity [24]: tde
Activity [25]: tde
IC50 [26]: 52.3 µM
Activity [27]: 15%
Activity [28]: Dose-dependent effect
Activity [29]: Active
Activity [30]: 45%
Activity [31]: 2.7%
Activity [32]: 2.9%
Activity [33]: 32.3%
Activity [34]: inactive
Activity [35]: Active
Activity [36]: 39%
Activity [37]: 19.9%
Activity [38]: inactive
Activity [39]: 47.3%
Activity [40]: 20%
Activity [41]: 47%
Activity [42]: 4.4%
Activity [43]: Dose-dependent effect
Activity [44]: 33.01%
Activity [45]: inactive
Activity [46]: Active
Activity [47]: 48%
Activity [48]: tde
Activity [49]: Dose-dependent effect
